Test results as given in US8436027B2, “Azole compounds used as tuberculostatic and leishmanicide agents” (priority 2005, dated 2013).
Where “and” joins values, the source holds several entries; their conditions need not be identical. Identical values can stand only once.

Experiments:
[1] = tested on: Mycobacterium tuberculosis H37Rv (ATCC-27294); assay: MIC by MABA (Microplate Alamar Blue Assay), antimicrobial activity; type: cell-based; conditions: M. tuberculosis H37Rv (ATCC 27294); for MIC: MABA, 5 days incubation + 24 h Alamar Blue; for Inhibition (%): concentration not given
[2] = tested on: M. tuberculosis; conditions: background statement; cited from earlier work
[3] = tested on: promastigote forms of Leishmania amazonensis; assay: Leishmanicide evaluation in vitro, live parasites counted by fluorescence; type: cell-based; conditions: for Percentage of parasitic inhibition: L. amazonensis promastigotes; for leishmanicide activity (inhibition): Table 6
Protocol: The evaluation of the Leishmanicide activity of the type I and II 1,2,3-triazole derivatives was made through in vitro essays against promastigote forms of Leishmania amazonensis, and after the incubation with compounds, live parasites are counted by fluorescence, thus obtaining as a result, the percentage of inhibition of the compounds evaluated.
Essays were performed in triplicate using pentamidine as a positive pattern with a 160 μg/mL concentration.
The evaluation of the leishmanicide activity of type I (Formula XII) and II (Formula XIII) imidazole derivatives was performed through in vitro essays against promastigote forms of Leishmania amazonensis, and after the incubation with compounds, live parasites are counted by fluorescence, thus obtaining as a result the inhibition percentage of the evaluated compounds.
Essays were performed in triplicate using pentamidine as a positive pattern with a 160 μg/mL concentration, determining which compounds evaluated inhibited the parasite in lower concentrations and the percentage higher than the pattern. Table 6 lists the results obtained in the leishmanicide evaluation of derivatives 140a 148a 146a, 149a.

Structure (SMILES) | MIC [1] | further results
Clc1ccc(/N=C/c2cn(-c3ccc(Cl)cc3)nn2)cc1 [compound 119, (E)-4-chloride-N-((1-(4-chlorophenyl)-1H-1,2,3-triazole-4-il)methylene)benzenamine] | 40 µg/mL | –
COc1ccc(OC)c(-n2cc(C=O)nn2)c1 [114e, 4-carboxaldehyde-1-(2,5-dimethoxyphenyl)-1H-1,2,3-triazole] | 80.0 µg/mL | Inhibition (%) [1]: 59%
O=Cc1cn(-c2cc(Cl)cc(Cl)c2)nn1 [114g, 4-carboxaldehyde-1-(3,5-dichlorophenyl)-1H-1,2,3-triazole] | 2.5 µg/mL | –
NNC(=O)c1ccncc1 [INH, isoniazide] | – | minimum inhibitory concentration (MIC) [2]: 0.02 to 0.06 µg/mL
Brc1ccc(/N=C/c2cn(-c3ccc(Br)cc3)nn2)cc1 [compound 120, (E)-4-bromo-N-((1-(4-bromophenyl)-1H-1,2,3-triazole-4-il)methylene)benzenamine] | 20 µg/mL | –
N#Cc1cccc(-n2cc(C=O)nn2)c1 [114h, 4-carboxaldehyde-1-(3-cyanophenyl)-1H-1,2,3-triazole] | 20.0 µg/mL | –
O=Cc1cn(-c2ccc([N+](=O)[O-])cc2)nn1 [114j, 4-carboxaldehyde-1-(4-nitrophenyl)-1H-1,2,3-triazole] | 20.0 µg/mL | –
N#Cc1ccc(-n2cc(C=O)nn2)cc1 [114i, 4-carboxaldehyde-1-(4-cyanophenyl)-1H-1,2,3-triazole] | 5.0 µg/mL | –
O=Cc1cn(-c2ccc(Cl)cc2)nn1 [114a, 4-carboxaldehyde-1-(4-chlorophenyl)-1H-1,2,3-triazole] | 5 µg/mL and 5.0 µg/mL | –
COc1ccc(-n2cc(C=O)nn2)cc1 [114d, 4-carboxaldehyde-1-(4-methoxyphenyl)-1H-1,2,3-triazole] | 10.0 µg/mL | Inhibition (%) [1]: 100%
O=Cc1cn(-c2cccc(Cl)c2)nn1 [114f, 4-carboxaldehyde-1-(3-chlorophenyl)-1H-1,2,3-triazole] | – | Percentage of parasitic inhibition ([3]; Concentration 20 μg/mL): No inhibition
Cc1ccc(-n2cc(C=O)nn2)cc1 [114c, 4-carboxaldehyde-1-(4-methylphenyl)-1H-1,2,3-triazole] | 2.5 µg/mL | Inhibition (%) [1]: 100%
FC(F)c1cn(-c2ccc(Cl)cc2)nn1 [121a, 1-(4-chlorophenyl)-4-difluoromethyl-1H-1,2,3-triazole] | 40.0 µg/mL | –
COc1ccc(-n2cc(C=O)nn2)cc1OC [114m, 4-carboxaldehyde 1-(3,4-dimethoxyphenyl)-1H-1,2,3-triazole] | 80.0 µg/mL | –
N=C(N)c1ccc(OCCCCCOc2ccc(C(=N)N)cc2)cc1 [pentamidine] | – | leishmanicide activity (inhibition) ([3]; Conc. 5 μ/mL): No inhibition; leishmanicide activity (inhibition) ([3]; Conc. 10 μ/mL): No inhibition; leishmanicide activity (inhibition) ([3]; Conc. 20 μ/mL): No inhibition; leishmanicide activity (inhibition) ([3]; Conc. 80 μ/mL): No inhibition; Percentage of parasitic inhibition ([3]; Concentration 5 μg/mL): No inhibition; Percentage of parasitic inhibition ([3]; Concentration 10 μg/mL): No inhibition; Percentage of parasitic inhibition ([3]; Concentration 20 μg/mL): No inhibition; Percentage of parasitic inhibition ([3]; Concentration 80 μg/mL): No inhibition
COc1ccccc1-n1cc(C=O)nn1 [114l, 4-carboxaldehyde-1-(2-methoxyphenyl)-1H-1,2,3-triazole] | 40.0 µg/mL | Inhibition (%) [1]: 94%
O=Cc1cn(-c2ccc(Br)cc2)nn1 [114b, 4-carboxaldehyde-1-(4-bromophenyl)-1H-1,2,3-triazole] | 5.0 µg/mL | Inhibition (%) [1]: 100%
O=[N+]([O-])c1ccc(-n2cc(C(F)F)nn2)cc1 [121j, 1-(4-nitrophenyl)-4-difluoromethyl-1H-1,2,3-triazole] | 40.0 µg/mL | –
